# Test results reported in PMC9777025, “Silibinin Overcomes EMT-Driven Lung Cancer Resistance to New-Generation ALK Inhibitors” (Cancers, 2022).
# Legend:
# H2228 = experiment: cells; set-up: species or system H2228/CR, H3122, H3122/CR; MTT cell viability assay, absorbance at 570 nm, IC50 by interpolation; settings: Homo sapiens, NCI-H2228; without silibinin
# Procedure: (§1) 2.5. Cell Viability Assay The cell viability effects of ALK–TKIs and silibinin were determined using the colorimetric MTT (3-4,5-dimethylthiazol-2-yl-2,5-diphenyl-tetrazolium bromide) reduction assay. Dose-response curves to graded concentrations of drugs were plotted as a percentage of the control cell absorbance, which was obtained from control cells containing the vehicle processed simultaneously. For each treatment, cell viability was evaluated using the following equation: (OD570 of the treated sample/OD570 of the untreated sample) × 100. Sensitivity to agents was expressed in terms of the concentrations required for a 50% (IC50) reduction in cell viability. Since the percentage of control absorbance was considered to be the surviving fraction of cells, the IC50 values were defined as the concentration of drug that produced a 50% reduction in control absorbance (by interpolation).
# H2228/CR = system: T1, H2228/CR; experiment: cells; set-up: species or system H3122, H3122/CR; MTT cell viability assay, absorbance at 570 nm, IC50 by interpolation; settings: Homo sapiens, NCI-H2228; without silibinin
# T1 construct: crizotinib-resistant H2228
# Procedure: as §1
# H3122 = experiment: cells; set-up: species or system H2228, H2228/CR, H3122/CR; MTT cell viability assay, absorbance at 570 nm, IC50 by interpolation; settings: Homo sapiens, NCI-H3122; without silibinin
# Procedure: as §1
# H3122/CR = system: T2, H3122/CR; experiment: cells; set-up: species or system H2228, H2228/CR; MTT cell viability assay, absorbance at 570 nm, IC50 by interpolation; settings: Homo sapiens, NCI-H3122; without silibinin
# T2 construct: crizotinib-resistant H3122
# Procedure: as §1
# TGFβR1/ALK5 = biological target: T3, TGFβR1/ALK5 (Homo sapiens, UniProt P36897); experiment: LanthaScreen Eu kinase binding assay (TR-FRET tracer displacement), 10-point titration
# T3 construct: gene TGFBR1
# T3 sequence (P36897 34-503): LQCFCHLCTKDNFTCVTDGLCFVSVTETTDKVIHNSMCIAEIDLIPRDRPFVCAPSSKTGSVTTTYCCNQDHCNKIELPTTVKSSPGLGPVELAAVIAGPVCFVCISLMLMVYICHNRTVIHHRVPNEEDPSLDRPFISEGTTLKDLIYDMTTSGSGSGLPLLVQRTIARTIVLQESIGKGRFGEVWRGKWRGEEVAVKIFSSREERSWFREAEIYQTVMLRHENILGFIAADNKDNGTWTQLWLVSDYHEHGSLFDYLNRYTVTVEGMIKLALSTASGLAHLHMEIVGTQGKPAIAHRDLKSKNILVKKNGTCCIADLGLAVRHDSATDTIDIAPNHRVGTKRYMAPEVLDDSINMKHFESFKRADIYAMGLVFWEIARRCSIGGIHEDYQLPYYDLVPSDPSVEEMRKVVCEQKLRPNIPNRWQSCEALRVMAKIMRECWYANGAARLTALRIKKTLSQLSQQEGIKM
# TGFβR2 = biological target: T4, TGFβR2 (Homo sapiens, UniProt P37173); experiment: as above
# T4 construct: gene TGFBR2
# T4 sequence (P37173 23-567): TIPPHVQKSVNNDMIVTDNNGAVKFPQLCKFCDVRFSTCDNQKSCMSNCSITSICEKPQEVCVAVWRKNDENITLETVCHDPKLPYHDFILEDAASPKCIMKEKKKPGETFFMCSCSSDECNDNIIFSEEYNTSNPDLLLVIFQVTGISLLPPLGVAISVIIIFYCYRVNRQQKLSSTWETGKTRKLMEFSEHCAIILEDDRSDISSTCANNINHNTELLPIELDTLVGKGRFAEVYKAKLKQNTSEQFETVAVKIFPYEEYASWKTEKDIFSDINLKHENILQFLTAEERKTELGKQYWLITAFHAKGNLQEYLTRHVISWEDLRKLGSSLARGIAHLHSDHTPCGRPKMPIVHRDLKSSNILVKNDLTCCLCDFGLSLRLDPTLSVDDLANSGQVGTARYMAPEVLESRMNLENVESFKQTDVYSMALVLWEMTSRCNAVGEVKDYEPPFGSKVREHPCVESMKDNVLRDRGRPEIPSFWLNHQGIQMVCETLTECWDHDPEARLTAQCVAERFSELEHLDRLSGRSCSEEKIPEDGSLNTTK
IC50 (H2228) [µM],IC50 (H2228/CR) [µM],IC50 (H3122) [µM],IC50 (H3122/CR) [µM],IC50 (TGFβR1/ALK5) [µM],IC50 (TGFβR2) [µM],Compound
2.1,10.6,0.29,1.08,–,–,C[C@@H](Oc1cc(-c2cnn(C3CCNCC3)c2)cnc1N)c1c(Cl)ccc(F)c1Cl [crizotinib]
0.5,3.8,0.02,0.12,–,–,COc1cc(N2CCC(N3CCN(C)CC3)CC2)ccc1Nc1ncc(Cl)c(Nc2ccccc2P(C)(C)=O)n1 [brigatinib]
–,–,–,–,70,56,COc1cc(C2Oc3cc([C@H]4Oc5cc(O)cc(O)c5C(=O)[C@@H]4O)ccc3OC2CO)ccc1O (mixture of isomers) [silibinin]
1,83,0.004,0.02,–,–,C[C@H]1Oc2cc(cnc2N)-c2c(nn(C)c2C#N)CN(C)C(=O)c2ccc(F)cc21 [lorlatinib]
